Measured values as given in patent publication US20250034151A1, “WEE1 INHIBITOR, PREPARATION THEREFOR, AND USE THEREOF” (JIANGSU TASLY DIYI PHARMACEUTICAL CO., LTD., priority 2022, published 2025).

Experiments:
Wee1 protein = target: T1, Wee1 protein (Homo sapiens, UniProt P30291); test: Binding of compound to Wee1 protein and Tracer 178 by TR-FRET (Wee1 kinase inhibitory activity); details: 15 nM WEE1, 50 nM Tracer 178, read-out: IC50 (inhibitory activity against Wee1 kinase)
T1 construct: purchased Thermo Fisher PR7373A
Procedure: First, solutions of the compounds in different concentration gradients were prepared. The compounds were dissolved in DMSO and the compounds were diluted 4 folds with a total of 10 dose points and 2 parallel replicates for each concentration.
The IC50 for inhibition of enzyme activity by the compounds was then calculated using GraphPad Prism 6 and fitted with a log (inhibitor) vs. response-Variable slope mode. The fitting equation was: Y=Bottom+(Top−Bottom)/(1+10^((Log IC50−X)*HillSlope)), wherein Y represents the percentage of residual enzyme activity known and X represents the known concentration of compound after the logarithm.

H1299 cells = test: Anti-proliferative effect on H1299 cells by Cell Titer-Glo; type: cell-based; details: Homo sapiens, NCI-H1299, 72 h, 3 days, read-out: H1299 (IC50, inhibition of proliferation in vitro)
Procedure: (§1) Test Example 2: Evaluation of Cell Proliferation Inhibitory Activity
1. Evaluation of the Anti-Proliferative Effect of Compounds on H1299 Cells by the Cell Titer-Glo Method
(§2) Compound solutions of different concentration gradients were prepared. […] The cell growth group without compound was used as a positive control (maximum signal control) and the medium was used as a negative control (minimum signal control), while ensuring that the final level of DMSO in each reaction well was 0.2%. After removing the medium from the 384-well plate, 25 ul of the configured compound at different concentrations was transferred into the well plate and the compound and cells were incubated in the cell incubator at 37° C. with 5% CO2 for 3 days.
(§3) The 384-well plates were removed from the cell incubator and allowed to equilibrate for 1h to room temperature. 25 ul of Cell Titer-Glo assay was added to each well, lysed on a shaker for 2 min and then read out (Luminescence) using a BMG PHERAStar after 10 min incubation. Calculate the inhibition rate from the luminescence signal: first calculate the average of the positive control (maximum signal control) and the negative control (minimum signal control).
(§4) was used to calculate the rate of inhibition of the cells by different concentrations of the compounds. The IC50 of the compound on cell activity inhibition was calculated by fitting a log(inhibitor) vs. response-Variable slope model to GraphPad Prism 6. The fitted equation was: Y=Bottom+(Top−Bottom)/(1+10^((Log IC50−X)*HillSlope)), where Y represents the rate of inhibition and X represents the concentration of the known compound after Log.
(§5) The results of the in vitro anti-cell proliferation assays of H1299 and MIA Paca-2 for the example compounds according to the method described above are shown in Table 2, wherein the IC50 of each compound was determined and classified according to the description as follows: […]

MIA PaCa2 cells = test: Anti-proliferative effect on MIA PaCa2 cells by Cell Titer-Glo; type: cell-based; details: Homo sapiens, MIA PaCa-2, 72 h, 3 days, read-out: MIA PaCa 2 (IC50, inhibition of proliferation in vitro)
Procedure: as §1
2. Evaluation of the Anti-Proliferative Effect of Compounds on MIA PaCa2 Cells by the Cell Titer-Glo Method
as §2
as §3, with “1 h” for “1h”
as §4, with “Y=Bottom+(Top-Bottom)/(1+10^((Log” for “Y=Bottom+(Top−Bottom)/(1+10^((Log”, “wherein” for “where”
as §5

T1 sequence (P30291 whole entry): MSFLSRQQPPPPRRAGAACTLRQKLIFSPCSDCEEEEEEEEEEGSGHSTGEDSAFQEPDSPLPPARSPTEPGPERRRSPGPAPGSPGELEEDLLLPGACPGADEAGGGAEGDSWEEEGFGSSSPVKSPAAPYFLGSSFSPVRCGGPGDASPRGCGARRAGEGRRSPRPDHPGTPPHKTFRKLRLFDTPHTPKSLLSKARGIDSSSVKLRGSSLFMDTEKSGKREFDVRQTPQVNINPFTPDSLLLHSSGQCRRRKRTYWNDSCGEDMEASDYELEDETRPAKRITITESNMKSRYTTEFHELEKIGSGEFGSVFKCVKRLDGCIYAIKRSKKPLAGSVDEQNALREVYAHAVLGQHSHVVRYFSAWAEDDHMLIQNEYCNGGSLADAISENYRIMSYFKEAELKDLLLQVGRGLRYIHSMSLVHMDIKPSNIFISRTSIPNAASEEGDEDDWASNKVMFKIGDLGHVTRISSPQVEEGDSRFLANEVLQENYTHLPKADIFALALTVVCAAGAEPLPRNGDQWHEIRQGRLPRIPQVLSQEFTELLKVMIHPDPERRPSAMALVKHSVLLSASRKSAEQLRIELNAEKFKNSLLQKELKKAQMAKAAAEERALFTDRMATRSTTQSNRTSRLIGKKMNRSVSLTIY

Row | IC50 (Wee1 protein) [nM] | IC50 (H1299 cells) [nM] | IC50 (MIA PaCa2 cells) [nM] | Structure (SMILES)
1 | 10 to 100 | 1000 to 2000 | 1000 to 2000 | C=CCn1c(=O)c2cnc(Nc3ccc(-n4cc(N(C)C)cn4)cc3)nc2n1-c1cccc(C(C)(C)O)n1 [Compound 36]
2 | 10 to 100 | 1000 to 2000 | 100 to 1000 | C=CCn1c(=O)c2cnc(Nc3ccc(N4CC5CC4CN5C4CCN(C)CC4)c(C)c3)nc2n1-c1cccc(C(C)(C)O)n1 (centres unmarked) [Compound 21]
3 | 10 to 100 | > 10000 | > 10000 | C=CCn1c(=O)c2cnc(Nc3ccc(-c4cc(=O)[nH]c5c4N4CCC5CC4)cc3)nc2n1-c1cccc(C(C)(C)O)n1 [Compound 16]
4 | 10 to 100 | 1000 to 2000 | 1000 to 2000 | C=CCn1c(=O)c2cnc(Nc3ccc(-n4cc(N5CCCC5)cn4)cc3)nc2n1-c1cccc(C(C)(C)O)n1 [Compound 55]
5 | 10 to 100 | 100 to 1000 | 1000 to 2000 | C=CCn1c(=O)c2cnc(Nc3ccc(N4CC5CC(CN(Cc6ccccc6)C5)C4)cc3)nc2n1-c1cccc(C(C)(C)O)n1 [Compound 22]
6 | 10 to 100 | 5000 to 10000 | – | C=CCn1c(=O)c2cnc(Nc3ccc(N4CCN(C)CC4)cc3)nc2n1-c1cc2ccccc2s1 [Compound 72]
7 | 10 to 100 | 100 to 1000 | 100 to 1000 | C=CCn1c(=O)c2cnc(Nc3ccc(N4C[C@@H]5C[C@H]4CN5C(C)C)cc3)nc2n1-c1cccc(C(C)(C)O)n1 [Compound 41]
8 | 5 to 10 | 100 to 1000 | 1000 to 2000 | C=CCn1c(=O)c2cnc(Nc3ccc(N4CC5CCC(C4)O5)cc3)nc2n1-c1cccc(C(C)(C)O)n1 [Compound 17]
9 | 5 to 10 | 100 to 1000 | – | C=CCn1c(=O)c2cnc(Nc3ccc(N4CCN(C)CC4)cc3)nc2n1-c1ccc2c(C(C)=O)cn(CC)c2n1 [Compound 70]
10 | 10 to 100 | 100 to 1000 | 1000 to 2000 | C=CCn1c(=O)c2cnc(Nc3ccc(N4C[C@@H]5C[C@H]4CN5C)cc3)nc2n1-c1ccc2ccn(CC)c2n1 [Compound 76]
11 | < 5 | 100 to 1000 | – | C=CCn1c(=O)c2cnc(Nc3ccc(N4C[C@@H]5C[C@H]4CN5C)cc3)nc2n1-c1cccc(N=S(C)(C)=O)n1 [Compound 5]
12 | 10 to 100 | 1000 to 2000 | – | C=CCn1c(=O)c2cnc(Nc3ccc(N4CCN(C)CC4)cc3)nc2n1-c1ccc2c(F)cn(CC)c2n1 [Compound 73]
13 | 10 to 100 | 5000 to 10000 | 5000 to 10000 | C=CCn1c(=O)c2cnc(Nc3ccc(N4CCOc5ccccc54)cc3)nc2n1-c1cccc(C(C)(C)O)n1 [Compound 31]
14 | 5 to 10 | 100 to 1000 | 1000 to 2000 | C=CCn1c(=O)c2cnc(Nc3ccc(N4C[C@H]5C[C@@H]4CO5)cc3)nc2n1-c1cccc(C(C)(C)O)n1 [Compound 20]
15 | 10 to 100 | > 10000 | 5000 to 10000 | C=CCn1c(=O)c2cnc(Nc3cnn(-c4ccc(N(C)C)cc4)c3)nc2n1-c1cccc(C(C)(C)O)n1 [Compound 45]
16 | 10 to 100 | 5000 to 10000 | 2000 to 5000 | C=CCn1c(=O)c2cnc(Nc3ccc(N4CC5CC(CN(CCOC)C5)C4)cc3)nc2n1-c1cccc(C(C)(C)O)n1 [Compound 34]
17 | < 5 | 1000 to 2000 | 1000 to 2000 | C=CCn1c(=O)c2cnc(Nc3ccc(N4C[C@@H]5C[C@H]4CN5CC(F)(F)F)cc3)nc2n1-c1cccc(C(C)(C)O)n1 [Compound 30]
18 | 10 to 100 | 2000 to 5000 | 100 to 1000 | C=CCn1c(=O)c2cnc(Nc3ccc(N4C[C@@H]5C[C@H]4CN5CCO)cc3)nc2n1-c1cccc(C(C)(C)O)n1 [Compound 38]
19 | 10 to 100 | > 10000 | > 10000 | C=CCn1c(=O)c2cnc(Nc3ccc(N4CCN(C)CC4)cc3)nc2n1-c1ccc2c(n1)OC(C)(C)CO2 [Compound 74]
20 | 5 to 10 | 2000 to 5000 | – | C=CCn1c(=O)c2cnc(Nc3ccc(N4CCN(C)CC4)cc3)nc2n1-c1cccc(C2(S(C)(=O)=O)CC2)n1 [Compound 1]
21 | 5 to 10 | 5000 to 10000 | 2000 to 5000 | C=CCn1c(=O)c2cnc(Nc3ccc(N(CC)CC(=O)N4CCN(C)CC4)cc3)nc2n1-c1cccc(C(C)(C)O)n1 [Compound 14]
22 | 5 to 10 | 1000 to 2000 | 1000 to 2000 | C=CCn1c(=O)c2cnc(Nc3ccc(C4CCN(C)CC4)cc3)nc2n1-c1ccc2ccn(CC)c2n1 [Compound 77]
23 | 10 to 100 | 1000 to 2000 | – | C=CCn1c(=O)c2cnc(Nc3ccc(N4CCN(C)CC4)cc3)nc2n1-c1ccc2nc(C)n(CC)c2n1 [Compound 75]
24 | 10 to 100 | 2000 to 5000 | – | C=CCn1c(=O)c2cnc(Nc3ccc(N4CCN(C)CC4)cc3)nc2n1-c1ccc2c(n1)N(CC)C(=O)C2(C)C [Compound 71]

Row | Structure (SMILES) | IC50 (Wee1 protein) [nM] | IC50 (H1299 cells) [nM] | IC50 (MIA PaCa2 cells) [nM]
25 | C=CCn1c(=O)c2cnc(Nc3ccc(N4CC5CC(C4)N5CC)cc3)nc2n1-c1cccc(C(C)(C)O)n1 [Compound 65] | 5 to 10 | 100 to 1000 | 100 to 1000
26 | C=CCn1c(=O)c2cnc(Nc3ccc(C4CC45C(=O)C4CCN5CC4)cc3)nc2n1-c1cccc(C(C)(C)O)n1 (centres unmarked) [Compound 32] | 10 to 100 | 2000 to 5000 | 2000 to 5000
27 | C=CCn1c(=O)c2cnc(Nc3ccc(N4CC5CC(C4)N5C)cc3)nc2n1-c1cccc(C(C)(C)OC)n1 [Compound 60] | 5 to 10 | 100 to 1000 | 100 to 1000
28 | C=CCn1c(=O)c2cnc(Nc3ccc(N4CC5CC(C4)N5C(=O)OC)cc3)nc2n1-c1cccc(C(C)(C)O)n1 [Compound 69] | 10 to 100 | 100 to 1000 | –
29 | C=CCn1c(=O)c2cnc(Nc3ccc(N4CC5CC(C4)N5C4COC4)cc3)nc2n1-c1cccc(C(C)(C)O)n1 [Compound 58] | 5 to 10 | 100 to 1000 | 100 to 1000
30 | C=CCn1c(=O)c2cnc(Nc3ccc(N4CC5CC(C4)N5CCO)cc3)nc2n1-c1cccc(C(C)(C)O)n1 [Compound 66] | 5 to 10 | 100 to 1000 | 100 to 1000
31 | C=CCN1C2CC1CN(c1ccc(Nc3ncc4c(=O)n(CC=C)n(-c5cccc(C(C)(C)O)n5)c4n3)cc1)C2 [Compound 64] | 10 to 100 | 100 to 1000 | 100 to 1000
32 | C=CCn1c(=O)c2cnc(Nc3ccc(N4CC5CC(C4)N5C)c(F)c3)nc2n1-c1cccc(C(C)(C)O)n1 [Compound 78] | 10 to 100 | > 10000 | 1000 to 2000
33 | C=CCn1c(=O)c2cnc(Nc3ccc(N4CC5CC(C4)N5C4CN(C)C4)cc3)nc2n1-c1cccc(C(C)(C)O)n1 [Compound 63] | 1000 to 10000 | > 10000 | > 10000
34 | C=CCn1c(=O)c2cnc(Nc3ccc([C@H]4C[C@@]45C(=O)C4CCN5CC4)cc3)nc2n1-c1cccc(N=S(C)(C)=O)n1 [Compound 47a] | 10 to 100 | 100 to 1000 | 1000 to 2000
35 | C=CCn1c(=O)c2cnc(Nc3ccc(C4CC45C(=O)C4CCN5CC4)cc3)nc2n1-c1cccc(N=S(C)(C)=O)n1 (centres unmarked) [Compound 47] | < 5 | 100 to 1000 | 100 to 1000
36 | C=CCn1c(=O)c2cnc(Nc3ccc([C@@H]4C[C@]45C(=O)C4CCN5CC4)cc3)nc2n1-c1cccc(N=S(C)(C)=O)n1 [Compound 47b] | 10 to 100 | 2000 to 5000 | 2000 to 5000
37 | C=CCn1c(=O)c2cnc(Nc3ccc(N(C)[C@H]4CN5CCC4CC5)cc3)nc2n1-c1cccc(C(C)(C)O)n1 [Compound 29] | 5 to 10 | > 10000 | > 10000
38 | C=CCn1c(=O)c2cnc(Nc3cc(F)c(N4CC5CC(C4)N5C)c(F)c3)nc2n1-c1cccc(C(C)(C)O)n1 [Compound 79] | 10 to 100 | > 10000 | –
39 | C=CCn1c(=O)c2cnc(Nc3ccc(OC4CN5CCC4CC5)cc3)nc2n1-c1cccc(N=S(C)(C)=O)n1 (centres unmarked) [Compound 7] | < 5 | 100 to 1000 | –
